Reference: US8138205B2, “Heteroarylalkoxy-substituted quinolone inhibitors of PDE4” (Kalypsys, Inc., priority 2006, dated 2012)
pIC50: −log10 of the molar value.

Assays:
Solubility Protocol = format: physicochemical; conditions: aqueous buffer, thermodynamic from solid; pH 7.4, 0.1 M sodium phosphate buffer
Description: About 5 mg of a compound was mixed with 500 μL of pH 7.4, 0.1 M sodium phosphate buffer. The mixture was adjusted to the original pH of 7.4 and then mixed overnight or longer via rotary mixing. The sample was checked for pH and then filtered through a 0.45 μm filter. If the pH drifted away, the sample was adjusted to its original pH and mixed for at least 15 minutes before filtration. The filtrate was analyzed using HPLC.

Stability Protocol = format: physicochemical; conditions: pH 7.4 sodium phosphate buffer, preliminary shelf life (T90) estimated from stressed samples
Description: About 3 mg of a compound was dissolved in 3 mL of acetonitrile/water mixture (50/50). 100 μL of the stock solution was added to 20 mL each of 0.025 M pH 5.0 sodium acetate buffer (A5.0), 0.025 M pH 5.0 citrate buffer (C5.0) and 0.025 M pH 7.4 sodium phosphate buffer (P7.4). A two mL aliquot of each solution was kept in a glass vial equipped a cap lined with Teflon. Two vials containing the solution were stored at 4° C. or −20° C. as control. Other aliquots were stressed at RT, 45° C. or 75° C. for specified time check points, e.g. 1 day, 1 w, 2 w, 4 w, 8 w,12 w. The stressed samples in duplicate were assayed against the control using HPLC. The results were reported in % degradation. Preliminary shelf life (T90) was estimated assuming the rate of chemical degradation is double when the temperature is up 10° C.

PDE4B = target: T1, PDE4B (Homo sapiens, UniProt Q07343); test: PDE/AK Biological Activity Assay (coupled PDE/adenylate kinase bioluminescent assay); format: biochemical; conditions: catalytic domain of PDE4B, read-out: PDE4 Enzyme IC50
T1 construct: hex-histidine (His6) (N); made in house
T1 sequence (Q07343 330-659 limits assumed, species assumed): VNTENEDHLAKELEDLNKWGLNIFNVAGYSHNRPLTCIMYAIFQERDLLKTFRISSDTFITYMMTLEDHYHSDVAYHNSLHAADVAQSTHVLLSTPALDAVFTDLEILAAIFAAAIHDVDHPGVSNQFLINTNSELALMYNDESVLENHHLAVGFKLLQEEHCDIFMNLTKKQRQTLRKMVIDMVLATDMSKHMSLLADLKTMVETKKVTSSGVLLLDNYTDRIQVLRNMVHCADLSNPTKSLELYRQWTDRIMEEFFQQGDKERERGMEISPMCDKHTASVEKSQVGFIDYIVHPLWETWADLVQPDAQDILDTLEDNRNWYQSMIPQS
Description: Phosphodiesterases regulate the activity of the second messenger cyclic adenosine monophosphate (cAMP) by hydrolyzing cAMP to adenosine monophosphate (AMP). We developed a coupled PDE/AK bioluminescent high-throughput assay to measure the activity of phosphodiesterases. In the PDE/AK assay, the AMP produced from the hydrolysis of cAMP by phosphodiesterase is converted to adenosine diphosphate (ADP) by the phosphotransferase activity of adenylate kinase (also known as ADK or myokinase). Adenylate kinase will catalyze the conversion of 1 mole of AMP and 1 mole of ATP into 2 moles of ADP. Thus the conversion of AMP to ADP will result in the subsequent loss of ATP. The decrease in ATP concentration can be monitored as light output using luciferase in a reaction that requires ATP to produce light. The PDE/AK assay uses luciferase, which catalyzes the production of light from ATP present in the reaction mix. The amount of emitted light is inversely proportional to the level of AMP present in the reaction. Test compounds are incubated with the phosphodiesterases and phosphodiesterase inhibitors will decrease the rate of cAMP hydrolysis and decrease the subsequent production of AMP. Thus phosphodiesterase inhibitors will decrease the conversion of ATP to ADP and result in the greatest emission of light.
Compounds may be screened for functional potency in in vitro biochemical assays for their ability to inhibit the activity of phosphodiesterase (PDE) enzymes. A coupled PDE/AK assay was utilized to measure the inhibitory activity of compounds on PDE isoforms. The catalytic domain of PDE4B was fused to an amino-terminus hex-histidine affinity tag and purified. PDE4B enzyme was incubated with compounds for 10 minutes. Cyclic AMP substrate, ATP and adenylate kinase were then added to the PDE enzyme mix and incubated for 45 minutes at room temperature. A commercial ATP detection assay, Perkin Elmer's easyLite ATP detection reagent, was then added to measure the relative amount of ATP present in the reaction. After 10 minute incubation, the luminescent signal was quantitated with either the Perkin Elmer Viewlux or Molecular Devices Acquest or Analyst. Roflumilast and Rolipram are the positive controls used in the assay.

Row | solubility (Solubility Protocol) [µg/mL] | Stability, pH 7.4 (Stability Protocol) | pIC50 (PDE4B) | SMILES
1 | ≥ 1000 | + (+ indicates ≧1 Year) | – | COc1ccc2c(Nc3c(Cl)cncc3Cl)cc(=O)[nH]c2c1OCCCCCC(=O)O [Example 11, 6-(4-(3,5-Dichloropyridin-4-ylamino)-7-methoxy-2-oxo-1,2-dihydroquinolin-8-yloxy)hexanoic acid]
2 | ≥ 1000 | + (+ indicates ≧1 Year) | – | COc1ccc2c(Nc3c(Cl)cncc3Cl)cc(=O)[nH]c2c1OCCCCCN(C)C [Example 14, 4-(3,5-Dichloropyridin-4-ylamino)-8-(5-(dimethylamino)pentyloxy)-7-methoxyquinolin-2(1H)-one]
3 | ≥ 1000 | + (+ indicates ≧1 Year) | > 6.00 | COc1ccc2c(Nc3c(Cl)cncc3Cl)cc(=O)[nH]c2c1OCCCN1CCN(C)CC1 [Example 18, 4-(3,5-dichloropyridin-4-ylamino)-7-methoxy-8-(3-(4-methylpiperazin-1-yl)propoxy)quinolin-2(1H)-one]
4 | ≥ 1000 | + (+ indicates ≧1 Year) | > 6.00 | COc1ccc2c(Nc3c(Cl)cncc3Cl)cc(=O)[nH]c2c1OCCCN1CCOCC1 [Example 19, 4-(3,5-dichloropyridin-4-ylamino)-7-methoxy-8-(3-morpholinopropoxy)quinolin-2(1H)-one]
5 | ≥ 1000 | + (+ indicates ≧1 Year) | > 6.00 | COc1ccc2c(Nc3c(Cl)cncc3Cl)cc(=O)[nH]c2c1OCCCCCCN1CCNCC1 [Example 22, 4-(3,5-Dichloropyridin-4-ylamino)-7-methoxy-8-(6-(piperazin-1-yl)hexyloxy)quinolin-2(1H)-one]
6 | ≥ 1000 | + (+ indicates ≧1 Year) | > 6.00 | COc1ccc2c(Nc3c(Cl)cncc3Cl)cc(=O)[nH]c2c1OCCCCC(=O)O [Example 52, 5-(4-(3,5-dichloropyridin-4-ylamino)-7-methoxy-2-oxo-1,2-dihydroquinolin-8-yloxy)pentanoic acid]
7 | ≥ 1000 | + (+ indicates ≧1 Year) | > 6.00 | COc1ccc2c(Nc3c(Cl)cncc3Cl)cc(=O)[nH]c2c1OCCCCCCC(=O)O [Example 53, 7-(4-(3,5-dichloropyridin-4-ylamino)-7-methoxy-2-oxo-1,2-dihydroquinolin-8-yloxy)heptanoic acid]
8 | ≥ 1000 | + (+ indicates ≧1 Year) | > 6.00 | COc1ccc2c(Nc3c(Cl)cncc3Cl)cc(=O)[nH]c2c1OCCCCCCCC(=O)O [Example 54, 8-(4-(3,5-dichloropyridin-4-ylamino)-7-methoxy-2-oxo-1,2-dihydroquinolin-8-yloxy)octanoic acid]
9 | ≥ 1000 | + (+ indicates ≧1 Year) | > 6.00 | COc1ccc2c(Nc3c(Cl)cncc3Cl)cc(=O)[nH]c2c1OCCCC(N)=O [Example 56, 4-(4-(3,5-dichloropyridin-4-ylamino)-7-methoxy-2-oxo-1,2-dihydroquinolin-8-yloxy)butanamide]
10 | ≥ 1000 | + (+ indicates ≧1 Year) | > 6.00 | COc1ccc2c(Nc3c(Cl)cncc3Cl)cc(=O)[nH]c2c1OCCCCC(N)=O [Example 57, 5-(4-(3,5-dichloropyridin-4-ylamino)-7-methoxy-2-oxo-1,2-dihydroquinolin-8-yloxy)pentanamide]
11 | ≥ 1000 | + (+ indicates ≧1 Year) | > 6.00 | COc1ccc2c(Nc3c(Cl)cncc3Cl)cc(=O)[nH]c2c1OCCCCCC(N)=O [Example 58, 6-(4-(3,5-dichloropyridin-4-ylamino)-7-methoxy-2-oxo-1,2-dihydroquinolin-8-yloxy)hexanamide]
12 | – | + (+ indicates ≧1 Year) | > 6.00 | COc1ccc2c(Nc3c(Cl)cncc3Cl)cc(=O)[nH]c2c1OCCCCCc1nn[nH]n1 [Example 69, 8-(5-(2H-tetrazol-5-yl)pentyloxy)-4-(3,5-dichloropyridin-4-ylamino)-7-methoxyquinolin-2(1H)-one]

Further lines, the compound ahead of its results:

Row | SMILES | solubility (Solubility Protocol) [µg/mL] | Stability, pH 7.4 (Stability Protocol) | pIC50 (PDE4B)
13 | COc1ccc2c(Nc3c(Cl)cncc3Cl)cc(=O)[nH]c2c1OCCCCCCN1CCN(C)CC1 [Example 15, 4-(3,5-Dichloropyridin-4-ylamino)-7-methoxy-8-(6-(4-methylpiperazin-1-yl)hexyloxy)quinolin-2(1H)-one] | ≥ 1000 | + (+ indicates ≧1 Year) | > 6.00
14 | COc1ccc2c(Nc3c(Cl)cncc3Cl)cc(=O)[nH]c2c1OCCCCCCN1CCOCC1 [Example 16, 4-(3,5-Dichloropyridin-4-ylamino)-7-methoxy-8-(6-morpholinohexyloxy)quinolin-2(1H)-one] | ≥ 1000 | + (+ indicates ≧1 Year) | > 6.00
15 | COc1ccc2c(Nc3c(Cl)cncc3Cl)cc(=O)[nH]c2c1OCCCCCCCN1CCN(C)CC1 [Example 20, 4-(3,5-dichloropyridin-4-ylamino)-7-methoxy-8-(7-(4-methylpiperazin-1-yl)heptyloxy)quinolin-2(1H)-one] | ≥ 1000 | + (+ indicates ≧1 Year) | > 6.00
16 | COc1ccc2c(Nc3c(Cl)cncc3Cl)cc(=O)[nH]c2c1OCCCCCCCCN1CCN(C)CC1 [Example 21, 4-(3,5-dichloropyridin-4-ylamino)-7-methoxy-8-(8-(4-methylpiperazin-1-yl)octyloxy)quinolin-2(1H)-one] | ≥ 1000 | + (+ indicates ≧1 Year) | > 6.00
17 | COc1ccc2c(Nc3c(C)cncc3C)cc(=O)[nH]c2c1OCCCCCCN1CCOCC1 [Example 35, 4-(3,5-Dimethylpyridin-4-ylamino)-7-methoxy-8-(6-morpholinohexyloxy)quinolin-2(1H)-one] | ≥ 1000 | + (+ indicates ≧1 Year) | > 6.00
18 | COc1ccc2c(Nc3c(C)cncc3C)cc(=O)[nH]c2c1OCCCCCCN(C)C [Example 38, 8-(6-(Dimethylamino)hexyloxy)-4-(3,5-dimethylpyridin-4-ylamino)-7-methoxyquinolin-2(1H)-one] | ≥ 1000 | + (+ indicates ≧1 Year) | > 6.00
19 | COc1ccc2c(Nc3c(Cl)cncc3Cl)cc(=O)[nH]c2c1OCC(C)C [Example 61, 4-(3,5-dichloropyridin-4-ylamino)-8-isobutoxy-7-methoxyquinolin-2(1H)-one] | – | + (+ indicates ≧1 Year) | > 6.00
20 | COc1ccc2c(Nc3c(C)cncc3C)cc(=O)[nH]c2c1OCCCCn1ccnc1 [Example 78, 8-(4-(1H-imidazol-1-yl)butoxy)-4-(3,5-dimethylpyridin-4-ylamino)-7-methoxyquinolin-2(1H)-one] | – | + (+ indicates ≧1 Year) | > 6.00
21 | COc1ccc2c(Nc3c(C)cncc3C)cc(=O)[nH]c2c1OCCCCCn1ccnc1 [Example 79, 8-(5-(1H-imidazol-1-yl)pentyloxy)-4-(3,5-dimethylpyridin-4-ylamino)-7-methoxyquinolin-2(1H)-one] | – | + (+ indicates ≧1 Year) | > 6.00
